Where a SMILES comes first, the peptide text is derived from it. Bridges are numbered along the chain shown (N, C = ends). Roman numbers before positions name the chains, in order. Triazole bridges read from a SMILES are 1,4-linked. Where no end group is shown, it is not given here. Side-chain parts run from the residue outwards. [ ]: non-standard residue; d: D form. The star is where a group is joined. X2 = CN1C(=C/C=C/C=C/C2=[N+](CCCCCC(=O)*)c3ccc(S(=O)(=O)[O-])cc3C2(C)C)C(C)(C)c2cc(S(=O)(=O)O)ccc21; X1 = CN1C(=CC=CC=CC2=[N+](CCCCCC(=O)*)c3ccc(S(=O)(=O)[O-])cc3C2(C)C)C(C)(C)c2cc(S(=O)(=O)O)ccc21; Lys(N3) = [N-]=[N+]=NCCCC[C@H](N)C(=O)O; Cit = NC(=O)NCCC[C@H](N)C(=O)O; d(hCys) = N[C@H](CCS)C(=O)O; PEG3 = NCCOCCOCCOCCC(=O)O; Pra = C#CC[C@H](N)C(=O)O
How the values were obtained:
[1] = target: T1, NanoLuc-MDM2 in HEK293 cells (Homo sapiens, UniProt Q00987); assay: Intracellular Cy5-PMIγ/NanoLuc-MDM2 BRET, cells without CMKLR1; type: cell-based; conditions: cells without CMKLR1, 72 h
T1 construct: host or cells: HEK293 and HEK293_CMKLR1-eYFP
T1 sequence (Q00987 whole entry): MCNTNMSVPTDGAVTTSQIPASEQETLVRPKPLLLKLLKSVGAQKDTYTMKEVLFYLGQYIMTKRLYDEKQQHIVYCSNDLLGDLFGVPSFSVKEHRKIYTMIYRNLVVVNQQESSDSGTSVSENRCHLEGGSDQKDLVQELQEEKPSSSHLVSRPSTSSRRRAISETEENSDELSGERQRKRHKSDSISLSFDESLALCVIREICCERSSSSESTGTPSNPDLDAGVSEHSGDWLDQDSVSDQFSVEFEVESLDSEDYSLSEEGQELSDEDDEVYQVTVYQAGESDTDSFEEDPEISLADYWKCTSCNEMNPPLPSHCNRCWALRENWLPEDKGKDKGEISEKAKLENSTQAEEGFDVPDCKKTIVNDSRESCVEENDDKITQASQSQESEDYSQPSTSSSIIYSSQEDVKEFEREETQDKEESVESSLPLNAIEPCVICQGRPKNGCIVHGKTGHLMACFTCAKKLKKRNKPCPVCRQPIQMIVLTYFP
Description: 4 Intracellular bioluminescence resonance energy transfer (BRET) between NanoLuc-MDM2 and Cy5-labeled PMIγ in living cells. (A) Peptides were incubated on HEK293 and HEK293_CMKLR1-eYFP cells for 72 h before BRET was measured. To evaluate the receptor-specific effect, ΔBRET was calculated by subtracting netBRET of cells without CMKLR from netBRET from cells with CMKLR1. Mean ± SEM from three independent experiments performed in duplicate. […] (B) Calculated ΔBRET values after different incubation times of peptides on the cells. (C, D) Same as panels (A) and (B), but peptide uptake was competed by coincubation with 30 μM peptide 1 (N3-cC9). […]
HEK293 and stably transfected HEK293_CMKLR1-eYFP cells were seeded at 15,000 cells per well into poly-ᴅ-lysine coated 96-well plates (white Nunc MicroWell, Thermo). […] After 10 min incubation, luminescence was measured in a Spark multimode plate reader (Tecan), and BRET ratio was calculated by […]
dividing the Cy5-signal (670±30 nm) by the NanoLuc signal (450±20 nm). netBRET was calculated by subtracting the BRET ratio from cells which were incubated without peptide. To calculate the CMKLR1-specific effect, ΔBRET was calculated by subtracting the netBRET value obtained in cells without CMKLR1 from netBRET obtained in cells with CMKLR1. After the initial readout, a kinetic BRET displacement was performed with the same cells. […]

HEK293_CMKLR1-eYFP cells = assay: Intracellular peptide stability (cleavage products in cell lysate, RP-HPLC, MALDI-ToF-MS); conditions: 1 μM peptide; for intact peptide in cell lysate: 15 min to 24 h, RP-HPLC λex 640 nm λem 670 nm; for cleavage site identified by MALDI-ToF-MS: PMIγ sequence remained intact
Description: 3 Quantification of Cy5-labeled peptides in the cytosol. (A) RP-HPLC (λex = 640 nm, λem = 670 nm) of cleavage products of Cy5-labeled peptides in the lysate of HEK293_CMKLR1-eYFP cells after incubation with 1 μM peptide for different durations. […] (B) Representative fluorescence correlation spectroscopy (FCS) autocorrelation curves of Cy5-labeled peptides measured in the cytosol of HEK293_CMKLR1-eYFP cells after 72 h of incubation. Measured curves were fitted with a model for hindered 3D diffusion and diffusion time t D and anomalous coefficient α were calculated from the fit. Autocorrelation data represent mean ± SD of up to 10 consecutive 5 s measurements in a single cell. (C) Intracellular concentrations of Cy5-labeled peptides after 72 h incubation calculated from the fitted autocorrelation curves obtained in HEK293_CMKLR1-eYFP, HMEC-1, and THP-1 cells. Each data point corresponds to FCS measurements from the cytosol of a single cell. Median with the interquartile range is shown. Data from three independent experiments. Statistical comparison by log-normal unpaired t test. ***p ≤ 0.001, **p ≤ 0.01, *p ≤ 0.05, ns – not significant. […] (D) Calculated diffusion coefficients from the fitted autocorrelation curves. Median with the interquartile range is shown.
Intracellular peptide stability
2 mL of 1 µM Cy5-labeled peptide in DMEM/Ham's F12 (1:1) + 15% FBS without phenol red were incubated on stably transfected HEK293_CMKLR1-eYFP cells in T25 cell culture flasks for 15 min to 24 h. The cells were washed with cold acidic wash (50 mM glycine, 100 mM sodium chloride, pH 3) and phosphate-buffered saline (PBS, Biowest) and harvested into 300 µl cold PBS with HaltTM Protease inhibitor cocktail (Thermo).
Suspended cells were homogenized with zirconia beads on a FastPrep-24 5G system (MP Biomedical) for 30 s and cellular proteins were precipitated from 600 µL ACN/ethanol (1:1) + 0.1% TFA at -20 °C for 2 h.
Cell lysates were then filtered through Costar Spin-X tubes, separated by RP-HPLC and isolated peaks were identified by MALDI-ToF MS (Ultraflextreme, Bruker). Experiments were performed at least twice and representative RP-HPLC chromatograms are shown.

With `CC(=O)N[C@@H](CCCCn1cc(C[C@H](NC(=O)CCOCCOCCOCCNC(=O)[C@H](CCCNC(N)=O)NC(=O)[C@@H](NC(=O)[C@H](CCC(=O)O)NC(=O)CNC(=O)CNC(=O)[C@@H](CCCNC(=N)N)NC(=O)[C@@H](CC(C)C)NC(=O)[C@@H](CC(C)C)NC(=O)[C@@H](C)NC(=O)[C@@H](CCC(=O)O)NC(=O)[C@@H](Cc2ccccc2)NC(=O)[C@@H](C)NC(=O)[C@@H](CC(C)C)NC(=O)[C@H]2CCCN2C(=O)[C@@H](Cc2c[nH]c3ccccc23)NC(=O)[C@@H](Cc2c[nH]c3ccccc23)NC(=O)[C@@H](CC(=O)O)NC(=O)CCOCCOCCOCCNC(=O)CCCCC[N+]2=C(/C=C/C=C/C=C3N(C)c4ccc(S(=O)(=O)O)cc4C3(C)C)C(C)(C)c3cc(S(=O)(=O)[O-])ccc32)C(C)C)C(N)=O)nn1)C(=O)N[C@@H](Cc1ccc(O)cc1)C(=O)N[C@@H](Cc1ccccc1)C(=O)N1CCC[C@H]1C(=O)N[C@@H]1CCSSC[C@@H](C(=O)O)NC(=O)[C@H](Cc2ccccc2)NC(=O)[C@H](C)NC(=O)[C@H](Cc2ccccc2)NC(=O)[C@H](CCC(N)=O)NC1=O` [2Cy] (I: {X2-PEG3}-[dD][dW][dW][dP][dL][dA][dF][dE][dA][dL][dL][dR]GGEV[Cit][PEG3][Pra]-NH2 / II: Ac-[Lys(N3)]YFP[d(hCys)]QFAFC-OH; triazole I:19-II:1; disulfide II:5-II:10) the “BRET between NanoLuc-MDM2 and Cy5-labeled peptide” value [1] was “only a minor signal”, the “intact peptide in cell lysate” value (HEK293_CMKLR1-eYFP cells) was “almost no intact peptide was detected” and the “cleavage site identified by MALDI-ToF-MS” value (HEK293_CMKLR1-eYFP cells; lysate) was “valine-citrulline linker was quickly cleaved”.
For “I: GSVSHHHHHHGGHHHH[PEG3][dK]([PEG3-X1])[dD][dW][dW][dP][dL][dA][dF][dE][dA][dL][dL][dR]GEV[Cit][PEG3][Pra]-NH2 / II: Ac-[Lys(N3)]YFP[d(hCys)]QFAFC-OH (triazole I:36-II:1; disulfide II:5-II:10) [3Cy]”, the “BRET between NanoLuc-MDM2 and Cy5-labeled peptide” value [1] was “strong BRET at 10 μM”, the “intact peptide in cell lysate” value (HEK293_CMKLR1-eYFP cells) was “almost no intact peptide was detected” and the “incubation time after which a singular cleavage product peak was observed” value (HEK293_CMKLR1-eYFP cells; RP-HPLC of lysate) was 1 h. For the same molecule, the “fate of the hsLMWP sequence” value (HEK293_CMKLR1-eYFP cells; lysate, MALDI-ToF-MS) was “completely removed” and the “cleavage site identified by MALDI-ToF-MS” value (HEK293_CMKLR1-eYFP cells; lysate) was “valine-citrulline linker was quickly cleaved”.

Reference: article PMC12814185, “Receptor-Mediated Shuttling of a D‑Amino Acid Peptide Achieves High Nanomolar Cytosolic Concentrations” (Journal of the American Chemical Society, 2025)
